Test results from patent US20150291645A1, “ISOACTEOSIDE DERIVATIVE AND USE THEREOF” (Sinphar Pharmaceutical Co., Ltd., priority 2014, published 2015).

Legend:
[1] = tested on: Human retinal pigment epithelium cells (ARPE-19); test: Protection of ARPE-19 cells against tert-butyl hydroperoxide oxidative damage (MTT); type: cell-based; details: 24 hours; for cell viability compared to the control / inhibition of human retinal pigment epithelium cell death: with tBHP, Sample 2 at 6.25, 12.5, 25 μM, Sample 8 at 8.75, 17.5, 35 μM, FIGS. 6A-6B
Protocol: Human retinal pigment epithelium cells (ARPE-19) were incubated in a DMEM/F12 cell culture medium (Life Technologies) containing 10% of fetal bovine serum (FBS), and were passaged using a 96-well plate after the cell concentration reached 90% full, which each well was seeded with 4.5×10^3 cells. Next day, Samples 2 and 8 were diluted with dimethyl sulfoxide (DMSO) to about 200 times of test concentration, and after that, appropriate amount of DMEM/F12 cell culture medium containing 5% fetal bovine serum was added and diluted to twice test concentration. Then, the resultant was mixed with 0.2 mM of tert-butyl hydroperoxide (tBHP, Sigma) in equal proportions to reach the test concentration (containing 0.5% of dimethyl sulfoxide). The diluted sample was added to the plate with the cells, which was placed in an incubator reacted for 24 hours, and the cell viability was analyzed by MTT solution. The absorbance was measured at a wavelength of 570 nm, and the cells not being treated by the medicine was a control, and the average absorbance of which was set to 100%. The cell viability of the cells being treated by the medicine was calculate by the following formula based on the measured absorbance:
Cell viability=(absorbance of the experimental group/average absorbance of the control)×100%.
The experiment results are shown in FIGS. 6A-6B, which show mean±standard error of six experimental groups (n=6). The statistical differences between damaging group (i.e. accepting damaging medicine, and no protective medicine) and testing medicine groups and the control group (Control, containing 0.5% of DMSO) were analyzed by Dunnett's multiple comparison test, which “*” represented p<0.05; “**” represented p<0.01; “***” represented p<0.001; and “****” represented p<0.0001.

[2] = tested on: Aβ40 in SH-SY5Y-APP695 cell medium; test: Inhibiting Aβ40 accumulation in culture medium of SH-SY5Y-APP695 cells (Human Aβ1-40 immunoassay, with MTT); type: cell-based; details: for effects of inhibiting Aβ40 accumulation: preliminary screening at lower concentration (10 and 20 μM), 24 hours
Protocol: Experimental method: Human neuroblastoma cell (SH-SY5Y-APP695), which expresses Swedish APP695 mutation, was incubated in a 3.5-cm culture dish until the cell concentration reached 90% full. When passage, each well of a 24-well plate was seeded with 4×10^5 cells. The culture medium was replaced with 300 μL of chemical-defined medium, which is a DMEM/F12 medium including 5 mM of Hepes buffer, 0.6% of glucose, 3 mM of NaHCO3, […], 100 μg/mL of transferrin, 20 nM of progesterone, 60 μM putrescine, 30 nM of sodium selenite, and 2 μg/mL of heparin, the next day. 3 μL of the testing sample was added into each well, and each concentration of each sample included 4 groups. After the cells were placed in an incubator (37° C., 5% CO2) and treated with the samples for 24 hours, the culture medium was collected and analyzed the amount of Aβ40 in the culture medium after treated by the samples through Human Aβ1-40 Immunoassay kits (Cat.KHB3482, Life Technologies). The cells treated by the samples were analyzed by MTT assay to evaluate the toxicity to the cells caused by sample treatment.
The testing concentrations of Sample 1 were 5 μM and 10 μM, and the testing concentrations of Samples 2-8 were 10 μM and 20 μM. The amount of Aβ40 in a SH-SY5Y-APP695 cell medium that there was no sample added as a control and set to 100%, and the amounts of Aβ40 in the medium after respectively treated by the testing samples were compared to the control and expressed in percentage. β-secretase inhibitor (β-SI) was used as a positive control. The experiment results are shown in FIGS. 1A-1D, which FIGS. 1A and 1C are result diagrams of the samples in inhibiting Aβ40 accumulation, and FIGS. 1B and 1D are result diagrams of the cell viability after treated by the samples. The results shown in FIGS. 1A-1D are mean±standard error of four experimental groups (n=4), and the statistical differences between the control and the testing samples were analyzed by Dunnett's multiple comparison test, which “*” represented p<0.05; “**” represented p<0.01; “***” represented p<0.001; and “****” represented p<0.0001.
Based on the experiment results of Experimental example 1, Sample 3, 4, and 6 having efficacy of inhibiting Aβ40 accumulation were selected. The testing concentrations of the samples were increased to 20, 50, and 100 μM, and were experimented using the method of Experimental example 1. FIG. 2A is a result diagram of the samples in inhibiting Aβ40 accumulation, and FIG. 2B is a result diagram of the cell viability after treated by the samples. The results shown in FIGS. 2A-2B are mean±standard error of four experimental groups (n=4), and the statistical differences between the control and the testing samples were analyzed by Dunnett's multiple comparison test, which “*” represented p<0.05; “**” represented p<0.01; “***” represented p<0.001; and “****” represented p<0.0001.

Aβ40 = Aβ40 (Homo sapiens, UniProt P05067); test: Aβ40 aggregation, thioflavin T assay; type: biochemical; details: for inhibition at 20 µM / inhibition at 200 µM: 4 hours 37° C.; for inhibition at 20 µM: FIG. 3A; for inhibition at 200 µM: FIG. 3B; for inhibit Aβ40 accumulation (ThT assay): summary of Experimental example 3
Protocol: Aβ40 aggregation: The Aβ40 stock was redissloved in DMSO to 10 mg/mL. Each group included 0.5 μL of 10 mg/mL Aβ40 and 4.5 μL of the testing sample diluted with Dulbecco's Phosphate-Buffered Saline (D-PBS). The concentrations of Sample 1 were 10 μM and 100 μM, and the concentrations of Sample 2-8 were 20 μM and 200 μM. The total reaction volume was 5 μL, and each concentration of each sample included 6 groups. After incubating in a 37° C. incubator for 4 hours, 200 μL of thioflavin T working solution (ThT working solution) was added and mixed thoroughly, which the thioflavin T working solution was 10 μM of thioflavin T dissolving in potassium phosphate buffer (PB buffer, pH 6.0). 200 μL of the mixture was placed into a black, clear bottom 96-well plate, and the ThT fluorescence intensity (Ex: 440 nm, Em: 482 nm) was measured to determine the level of Aβ40 aggregation. This experimental example used thioflavin T assay (ThT assay) to evaluate the level of Aβ40 aggregation. Since ThT and Congo red derivatives can form bonds with aggregated form of Aβ protein, the level of Aβ aggregation is higher when the amount of bonded ThT is more. By detecting the variation in the amount of ThT, the change in the level of Aβ aggregation can be estimated. The value of not reacting with any sample (i.e. only containing 0.5 μL of Aβ40 and 4.5 μL of D-PBS, which the final concentration of Aβ40 was 1 mg/mL) was a control and set to 100%, and isoacteoside (IsoA) was used as a positive control. The values of the testing samples were compared to the control and expressed in percentage, and the experiment results are shown in FIGS. 3A-3B. The results shown in FIGS. 3A-3B were mean±standard error of six experimental groups (n=6), and the statistical differences between the control and the testing samples were analyzed by Dunnett's multiple comparison test, which “*” represented p<0.05; “**” represented p<0.01; “***” represented p<0.001; and “****” represented p<0.0001.
(§1) The concentration of Sample 1 was 10 μM, the concentration of Samples 2-9 was 20 μM, and the concentration of IsoA was 10 μg/mL. The measured value of the control without adding any sample was set to 100%, and other values were adjusted accordingly. […] The concentration of Sample 1 was 100 μM, the concentration of Samples 2-9 was 200 μM, and the concentration of IsoA was 100 μg/mL. The measured value of the control without adding any sample was set to 100%, and other values were adjusted accordingly.

Aβ42 = target: T1, Aβ42 (Homo sapiens, UniProt P05067); test: Aβ42 aggregation, thioflavin T assay; type: biochemical; details: for inhibition at 20 µM / inhibition at 200 µM: 30 minutes 37° C.; for inhibition at 20 µM: FIG. 4A; for inhibition at 200 µM: FIG. 4B; for inhibit Aβ42 accumulation (ThT assay): summary of Experimental example 4
T1 construct: Aβ42 was redissloved in DMSO to 2.5 mg/mL
Protocol: Experimental method: Aβ42 was redissloved in DMSO to 2.5 mg/mL, and Samples 1-9 were diluted with D-PBS to appropriate concentrations. The concentrations of Sample 1 were 10 μM and 100 μM, the concentrations of Sample 2-9 were 20 μM and 200 μM, and the concentrations of IsoA were 10 μg/mL and 100 μg/mL. Each reaction included 1 μL of Aβ42 (final concentration was 0.25 mg/mL) and 9 μL of the testing sample, which each concentration of each sample included 8 groups, and was placed at 37° C. reacting for 30 minutes after thoroughly mixed. 200 μL of Thioflavin T working solution was added and mixed thoroughly after the reaction completed, 200 μL of the which was placed into a black, clear bottom 96-well plate, and the ThT fluorescence intensity (Ex: 440 nm, Em: 482 nm) was measured to determine the level of Aβ42 aggregation. The value of not reacting with any sample (i.e. only containing 1 μL of Aβ42 and 9 μL of D-PBS, which the final concentration of Aβ42 was 0.25 mg/mL) was a control and set to 100%, and isoacteoside (IsoA) was used as a positive control. The values of the samples were compared to the control and expressed in percentage. The experiment results are shown in FIGS. 4A-4B, which show mean±standard error of eight experimental groups (n=8), and the statistical differences between the control and the testing samples were analyzed by Dunnett's multiple comparison test, which “*” represented p<0.05; “**” represented p<0.01; “***” represented p<0.001; and “****” represented p<0.0001.
as §1, with “μg/mL. The level of Aβ42 accumulation was measured by ThT assay, which the measured value” for “μg/mL. The measured value”

β-amyloid peptides (Aβ) = details: position of the caffeoyl group (sixth vs fourth), WO 2011/157059 A1; cited from earlier work
[3] = summary of Experimental examples 1 and 2

T1 sequence (P05067 672-713 limits assumed): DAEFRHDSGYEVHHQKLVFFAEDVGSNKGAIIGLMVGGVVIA
Sequence of Aβ40 (P05067 672-711 limits assumed): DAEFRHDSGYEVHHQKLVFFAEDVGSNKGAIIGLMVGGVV

Row | Structure (SMILES) | effects of inhibiting Aβ40 accumulation ([2]; FIGS. 1A-1D) | inhibit Aβ40 formation in cell [2, 3] | inhibition at 20 µM (Aβ40) | inhibition at 200 µM (Aβ40) | inhibit Aβ40 accumulation (ThT assay) (Aβ40) | inhibition at 20 µM (Aβ42) | inhibit Aβ42 accumulation (ThT assay) (Aβ42) | also measured
1 | CC(C)(C)OO [tBHP, tert-butyl hydroperoxide, reference compound] |  |  |  |  |  |  |  | cell death ([1]; tBHP alone (0.2 mM mixed in equal proportions)): 30%-40%
2 | O=C(/C=C/c1ccc(O)c(O)c1)OCC1OC(OCCc2ccccc2)C(O)C(O)C1O (stereo not drawn) [Sample 4] | had effects of inhibiting Aβ40 accumulation | could inhibit Aβ40 formation in cell | ~30% | ~20% | could effectively inhibit | ~50% | could effectively inhibit | effect of increasing the sample concentration on inhibiting Aβ accumulation ([2]; 20, 50 and 100 μM, FIGS. 2A-2B): could not further enhance the efficacy of inhibiting Aβ accumulation; inhibition at 200 µM (Aβ42): ~70%
3 | O=C(/C=C/c1ccc(OCc2ccccc2)c(OCc2ccccc2)c1)OCC1OC(OCCc2ccccc2)C(O)C(O)C1O (stereo not drawn) [Sample 3] | had effects of inhibiting Aβ40 accumulation | could inhibit Aβ40 formation in cell |  |  |  |  |  | inhibition at 20 µM ([2]; Homo sapiens, 20 μM, condition of not affecting the cytotoxicity, FIGS. 2A-2B): ~20%; comparison among samples, inhibiting Aβ40 accumulation ([2]; preliminary screening, FIGS. 1A-1D): had the best result of inhibiting Aβ40 accumulation
4 | C[C@@H]1O[C@@H](O[C@@H]2[C@@H](O)[C@H](OCCc3ccc(O)c(O)c3)O[C@H](COC(=O)/C=C/c3ccc(O)c(O)c3)[C@H]2O)[C@H](O)[C@H](O)[C@H]1O [isoacteoside] |  |  |  |  |  |  |  | activity of inhibiting β-amyloid peptides (Aβ) accumulation (β-amyloid peptides (Aβ)): better
5 | O=C(/C=C/c1ccc(O)c(O)c1)OCC1OC(OCCc2ccc(OCc3ccccc3)cc2)C(O)C(O)C1O (stereo not drawn) [Sample 8] |  |  | ~30% | ≤ 70% | could effectively inhibit | ~60% | could effectively inhibit | comparison among samples, Aβ40 accumulation (ThT assay) (Aβ40; summary): had the best result; comparison among samples, Aβ42 accumulation (ThT assay) (Aβ42; summary): had the best result; cell viability compared to the control [1]: even better then the control; inhibition of human retinal pigment epithelium cell death [1]: could be significantly inhibited
6 | CC(=O)Oc1ccc(/C=C/C(=O)OCC2OC(OCCc3ccc(Cl)cc3)C(OC(C)=O)C(OC(C)=O)C2OC(C)=O)cc1OC(C)=O (stereo not drawn) [Sample 2] |  |  | ~20% | ~20% | could effectively inhibit | ~20% | could effectively inhibit | inhibition at 200 µM (Aβ42): ~40%; cell viability compared to the control [1]: even better then the control; inhibition of human retinal pigment epithelium cell death [1]: could be significantly inhibited
7 | O=C(/C=C/c1ccc(OCc2ccccc2)c(OCc2ccccc2)c1)OCC1OC(OCCc2cccc(OCc3ccccc3)c2)C(O)C(O)C1O (stereo not drawn) [Sample 6] | had effects of inhibiting Aβ40 accumulation | could inhibit Aβ40 formation in cell |  |  |  |  |  | inhibition at 50 µM ([2]; Homo sapiens, 50 μM, condition of not affecting the cytotoxicity, FIGS. 2A-2B): ~40%; comparison among samples, Aβ40 formation in cell [2, 3]: had the best result
